One assay deals with T1, MT2 receptor (Homo sapiens, UniProt P49286).
T1 sequence (P49286 1-362): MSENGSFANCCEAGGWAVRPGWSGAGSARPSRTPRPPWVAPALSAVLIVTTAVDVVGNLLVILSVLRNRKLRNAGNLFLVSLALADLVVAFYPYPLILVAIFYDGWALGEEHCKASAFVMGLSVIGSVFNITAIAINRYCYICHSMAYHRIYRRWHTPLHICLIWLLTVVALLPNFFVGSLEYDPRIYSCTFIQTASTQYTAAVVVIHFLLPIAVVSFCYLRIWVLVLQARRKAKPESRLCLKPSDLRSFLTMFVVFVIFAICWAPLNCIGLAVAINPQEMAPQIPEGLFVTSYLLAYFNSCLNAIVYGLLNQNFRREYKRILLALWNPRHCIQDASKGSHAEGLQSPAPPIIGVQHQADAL
Kind of assay: Melatonin MT2 receptor binding study (2-[125I]-iodomelatonin competition). The settings on record: 2-[125I]-iodomelatonin radioligand, triplicate. The method, then: (§1) The MT1 or MT2 receptor binding experiments are carried out using 2-[^125I]-iodomelatonin as reference radioligand. The radioactivity retained is determined using a liquid scintillation counter.
(§2) Competitive binding experiments are then carried out in triplicate using the various test compounds. A range of different concentrations is tested for each compound. The results enable the binding affinities (Ki) of the compounds tested to be determined.

A further assay addresses MT1 receptor (Homo sapiens, UniProt P48039). Kind of assay: Melatonin MT1 receptor binding study (2-[125I]-iodomelatonin competition). As to conditions: 2-[125I]-iodomelatonin radioligand, triplicate. The method, then:
as §1, §2

Molecules are shown by their SMILES.

MT1 receptor, sequence (P48039 whole entry): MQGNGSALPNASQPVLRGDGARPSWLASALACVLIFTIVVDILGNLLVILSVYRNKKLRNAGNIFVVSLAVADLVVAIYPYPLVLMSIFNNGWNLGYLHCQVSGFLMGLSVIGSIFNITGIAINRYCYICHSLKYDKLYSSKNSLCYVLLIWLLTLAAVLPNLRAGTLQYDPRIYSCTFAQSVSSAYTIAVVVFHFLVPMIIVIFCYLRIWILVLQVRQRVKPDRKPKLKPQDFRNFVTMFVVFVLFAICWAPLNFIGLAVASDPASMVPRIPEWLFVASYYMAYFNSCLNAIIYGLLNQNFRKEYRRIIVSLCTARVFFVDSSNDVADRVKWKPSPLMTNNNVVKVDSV

Regarding `CNC(=O)c1cc2ccc(OC)cc2n1CCNC(C)=O` [Example 1, 1-[2-(Acetylamino)ethyl]-6-methoxy-N-methyl-1H-indole-2-carboxamide], the Ki (usually a dissociation constant, usually derived from enzyme kinetics or from competition with a known ligand) was 1 nM at MT2 receptor and 18 nM on MT1 receptor.
